Results on 3 compounds are retold here after ChEMBL document CHEMBL1152871, “Synthesis of citrate-ciprofloxacin conjugates” (2009).

What all share (type): functional
Assay [1] relates to Pseudomonas aeruginosa. Kind of assay: Antimicrobial activity against Pseudomonas aeruginosa BIG 0063 at 5 ug/disk after 18 to 20 hrs by disk diffusion assay. Particulars: read-out: IZ. For orientation: In agar diffusion tests the substance spreads into inoculated agar from a disc or well.
The subject of assay [2] is Staphylococcus aureus. Kind of assay: Antimicrobial activity against Staphylococcus aureus NCTC 10399 at 5 ug/disk after 18 to 20 hrs by disk diffusion assay. As to conditions: read-out: IZ.
Assay [3] relates to Pseudomonas aeruginosa. Kind of assay: Antimicrobial activity against Pseudomonas aeruginosa NCTC 6749 at 5 ug/disk after 18 to 20 hrs by disk diffusion assay. Particulars: read-out: IZ.
The subject of assay [4] is Staphylococcus aureus. Kind of assay: Antimicrobial activity against Staphylococcus aureus NCTC 6571 at 5 ug/disk after 18 to 20 hrs by disk diffusion assay. Particulars: read-out: IZ.
The test system of assay [5] is Pseudomonas aeruginosa. Kind of assay: Antimicrobial activity against Pseudomonas aeruginosa BIG 0039 at 5 ug/disk after 18 to 20 hrs by disk diffusion assay. Particulars: read-out: IZ.
Assay [6] relates to Staphylococcus aureus. Kind of assay: Antimicrobial activity against ciprofloxacin and epidemic methicillin-resistant Staphylococcus aureus NCTC 13143 at 5 ug/disk after 18 to 20 hrs by disk diffusion assay. As to conditions: read-out: IZ.
Assay [7] relates to Pseudomonas aeruginosa. Kind of assay: Antimicrobial activity against Pseudomonas aeruginosa NCTC 10662 at 5 ug/disk after 18 to 20 hrs by disk diffusion assay. Particulars: read-out: IZ.
Assay [8] has as its system Staphylococcus aureus. Kind of assay: Antimicrobial activity against ciprofloxacin and epidemic methicillin-resistant Staphylococcus aureus BIG 0052 at 5 ug/disk after 18 to 20 hrs by disk diffusion assay. As to conditions: read-out: IZ.
The next assay concerns Burkholderia cepacia. Kind of assay: Antimicrobial activity against Burkholderia cepacia NCTC 10744 at 5 ug/disk after 18 to 20 hrs by disk diffusion assay. As to conditions: read-out: IZ.
The test system of assay [9] is Staphylococcus haemolyticus. Kind of assay: Antimicrobial activity against Staphylococcus haemolyticus NCTC 11042 at 5 ug/disk after 18 to 20 hrs by disk diffusion assay. Particulars: read-out: IZ.
Assay [10] relates to Escherichia coli. Kind of assay: Antimicrobial activity against ciprofloxacin-resistant Escherichia coli BIG 0051 at 5 ug/disk after 18 to 20 hrs by disk diffusion assay. As to conditions: read-out: IZ.
The test system of assay [11] is Staphylococcus aureus. Kind of assay: Antimicrobial activity against ciprofloxacin and methicillin-resistant Staphylococcus aureus HG-1 at 5 ug/disk after 18 to 20 hrs by disk diffusion assay. As to conditions: read-out: IZ.
Assay [12] has as its system Staphylococcus epidermidis. Kind of assay: Antimicrobial activity against Staphylococcus epidermidis NCTC 2749 at 5 ug/disk after 18 to 20 hrs by disk diffusion assay. Particulars: read-out: IZ.
Assay [13] deals with Escherichia coli. Kind of assay: Antimicrobial activity against Escherichia coli NCTC 10418 at 5 ug/disk after 18 to 20 hrs by disk diffusion assay. Particulars: read-out: IZ.
Assay [14] relates to Staphylococcus epidermidis. Kind of assay: Antimicrobial activity against Staphylococcus epidermidis NCTC 11047 at 5 ug/disk after 18 to 20 hrs by disk diffusion assay. As to conditions: read-out: IZ.
The next assay has as its system Serratia marcescens. Kind of assay: Antimicrobial activity against Serratia marcescens NCTC 1377 at 5 ug/disk after 18 to 20 hrs by disk diffusion assay. Particulars: read-out: IZ.
In assay [15] the test system is Escherichia coli. Kind of assay: Antimicrobial activity against ciprofloxacin-resistant Escherichia coli BIG 0046 at 5 ug/disk after 18 to 20 hrs by disk diffusion assay. As to conditions: read-out: IZ.
For assay [16], the system named is Pseudomonas aeruginosa. Kind of assay: Antimicrobial activity against Pseudomonas aeruginosa BIG 0037 at 5 ug/disk after 18 to 20 hrs by disk diffusion assay. Particulars: read-out: IZ.
The subject of assay [17] is Staphylococcus aureus. Kind of assay: Antimicrobial activity against epidemic methicillin-resistant Staphylococcus aureus NCTC 13142 at 5 ug/disk after 18 to 20 hrs by disk diffusion assay. As to conditions: read-out: IZ.
In assay [18] the test system is Escherichia coli. Kind of assay: Antimicrobial activity against isogenic Escherichia coli K-12 […] mutant at 0.15 ug after overnight incubation in presence of 1 uM Fe3-cation.
Assay [19] relates to Escherichia coli. Kind of assay: Antimicrobial activity against isogenic Escherichia coli K-12 […] mutant at 0.15 ug after overnight incubation in presence of 1000 uM Fe3-cation.
In assay [20] the test system is Escherichia coli. Kind of assay: Antimicrobial activity against wild-type Escherichia coli K-12 BW-25113 at 0.15 ug after overnight incubation in presence of 1 uM Fe3-cation.
In assay [21] the test system is Escherichia coli. Kind of assay: Antimicrobial activity against wild-type Escherichia coli K-12 BW-25113 at 0.15 ug after overnight incubation in presence of 1000 uM Fe3-cation.

With `O=C(O)c1cn(C2CC2)c2cc(N3CCNCC3)c(F)cc2c1=O` [CIPROFLOXACIN], the zone of inhibition at 5 µg/disc in the assay on Pseudomonas aeruginosa [1] came out at 32 mm; in the assay on Staphylococcus aureus [2] it was 27 mm; in the assay with Pseudomonas aeruginosa [3], 35 mm; with Staphylococcus aureus [4], 24 mm; in the assay on Pseudomonas aeruginosa [5], 27 mm; in the assay on Staphylococcus aureus [6] it was 0 mm. In addition, the zone of inhibition at 5 µg/disc was determined as 31 mm in the assay on Pseudomonas aeruginosa [7]; 0 mm in the assay with Staphylococcus aureus [8]; 22 mm in the assay on Burkholderia cepacia; 25 mm in assay [9]; 0 mm in the assay with Escherichia coli [10]; 0 mm with Staphylococcus aureus [11]. For the same compound, the zone of inhibition at 5 µg/disc in assay [12] came out at 29 mm; in the assay with Escherichia coli [13] it was 32 mm; in assay [14], 25 mm; in the assay on Serratia marcescens, 30 mm; with Escherichia coli [15] it was 0 mm; in the assay with Pseudomonas aeruginosa [16], 31 mm. Also, the zone of inhibition at 5 µg/disc with Staphylococcus aureus [17] worked out at 22 mm.
As to `O=C(O)CC(O)(CC(=O)N1CCN(c2cc3c(cc2F)c(=O)c(C(=O)O)cn3C2CC2)CC1)C(=O)O` (centres undefined), the zone of inhibition at 5 µg/disc with Staphylococcus aureus [2] came out at 20 mm; in the assay with Pseudomonas aeruginosa [3], 23 mm; in the assay on Staphylococcus aureus [4], 17 mm; with Pseudomonas aeruginosa [5], 18 mm; in the assay on Pseudomonas aeruginosa [7], 23 mm; in the assay with Staphylococcus aureus [8] it was 0 mm. The zone of inhibition at 5 µg/disc stood at 18 mm in the assay on Burkholderia cepacia; 30 mm in assay [9]; 0 mm in the assay on Escherichia coli [10]; 0 mm in the assay with Staphylococcus aureus [11]; 28 mm in assay [12]; 30 mm in the assay with Escherichia coli [13]. In addition, the figures for the zone of inhibition at 5 µg/disc (in assay [14]; in the assay on Escherichia coli [15]; in the assay on Pseudomonas aeruginosa [16]) were 28 mm, 0 mm and 25 mm, respectively. Further, the “inhibition zone (IZ)” value in the assay on Escherichia coli [18] was 0.6 cm; in the assay on Escherichia coli [19], 0.8 cm; with Escherichia coli [20] it was 1.1 cm; in the assay with Escherichia coli [21], 1.3 cm.
As to `O=C(O)CC(O)(CC(=O)O)C(=O)N1CCN(c2cc3c(cc2F)c(=O)c(C(=O)O)cn3C2CC2)CC1`, the zone of inhibition at 5 µg/disc in the assay on Pseudomonas aeruginosa [1] was 24 mm; with Staphylococcus aureus [2] it was 23 mm; in the assay with Staphylococcus aureus [4], 20 mm; in the assay on Staphylococcus aureus [6] it was 0 mm; in the assay on Staphylococcus aureus [8] it was 0 mm; with Burkholderia cepacia, 18 mm. The zone of inhibition at 5 µg/disc in [9] came out at 20 mm; in the assay with Escherichia coli [10] it was 0 mm; with Staphylococcus aureus [11], 0 mm; in assay [12] it was 24 mm; in the assay with Escherichia coli [13], 27 mm; in [14], 21 mm. In addition, the zone of inhibition at 5 µg/disc with Serratia marcescens came out at 25 mm; in the assay on Escherichia coli [15], 0 mm; in the assay with Pseudomonas aeruginosa [16] it was 24 mm; in the assay with Staphylococcus aureus [17] it was 21 mm.
